Laboratory results published in ChEMBL document CHEMBL1132050, “Synthesis of novel analogues of the delta opioid ligand SNC-80 using AlCl3-promoted aminolysis” (Bioorg Med Chem Lett, 1999).

Assays:
Cricetinae gen. sp. [1] = assay: Maximum efficacy in the Hamster vas deferens (HVD) functional assay was determined […] at a compound concentration of 10E-10 to 10E-5
Mus musculus [2] = assay: Antinociceptive activity against acetic acid induced abdominal constriction model in mice by sc administration; type: functional; conditions: Abdomen
Mus musculus [3] = assay: Maximum efficacy in Mouse vas deferens (MVD) functional assay was determined […] at a compound concentration of 10E-10 to 10E-5
Mus musculus [4] = assay: Potency in the Mouse vas deferens (MVD) functional assay was determined […]
[5] = target: T1, Delta-type opioid receptor (Homo sapiens, UniProt P41143); assay: Inhibition of binding of [3H]- -naltrindole (0.15 nM) to membranes from CHO cells expressing Opioid receptor delta 1; type: cell membranes
[6] = target: Kappa-type opioid receptor (Cavia porcellus, UniProt P41144); assay: Binding affinity towards Opioid receptor kappa 1 using [3H]- U-69,593 (1.5 nM) as radioligand in guinea pig brain membranes; type: cell membranes, Membrane
Mu-type opioid receptor = Mu-type opioid receptor (Rattus norvegicus, UniProt P33535); assay: Binding affinity towards mu opioid receptor using [3H]- -DAMGO (1.5 nM) as radioligand in rat brain membranes; type: cell membranes
Cricetinae gen. sp. [7] = assay: Potency in the Hamster vas deferens (HVD) functional assay was determined […]
[8] = target: T1, Delta-type opioid receptor; assay: Compound was tested for inhibition of binding of [3H]- -naltrindole (0.15 nM) to membranes from CHO cells expressing human delta opioid receptor; type: cell membranes

Sequence of Kappa-type opioid receptor (P41144 whole entry): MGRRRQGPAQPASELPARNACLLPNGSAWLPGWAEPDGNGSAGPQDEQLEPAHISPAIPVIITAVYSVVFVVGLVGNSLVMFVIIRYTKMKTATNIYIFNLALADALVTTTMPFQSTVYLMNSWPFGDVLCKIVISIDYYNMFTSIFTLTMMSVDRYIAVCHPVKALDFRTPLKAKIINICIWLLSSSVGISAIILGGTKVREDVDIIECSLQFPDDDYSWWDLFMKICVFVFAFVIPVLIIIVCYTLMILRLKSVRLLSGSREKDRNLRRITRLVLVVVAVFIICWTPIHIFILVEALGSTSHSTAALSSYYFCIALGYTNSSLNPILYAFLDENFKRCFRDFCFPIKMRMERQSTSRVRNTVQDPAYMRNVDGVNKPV
T1 sequence (P41143 whole entry): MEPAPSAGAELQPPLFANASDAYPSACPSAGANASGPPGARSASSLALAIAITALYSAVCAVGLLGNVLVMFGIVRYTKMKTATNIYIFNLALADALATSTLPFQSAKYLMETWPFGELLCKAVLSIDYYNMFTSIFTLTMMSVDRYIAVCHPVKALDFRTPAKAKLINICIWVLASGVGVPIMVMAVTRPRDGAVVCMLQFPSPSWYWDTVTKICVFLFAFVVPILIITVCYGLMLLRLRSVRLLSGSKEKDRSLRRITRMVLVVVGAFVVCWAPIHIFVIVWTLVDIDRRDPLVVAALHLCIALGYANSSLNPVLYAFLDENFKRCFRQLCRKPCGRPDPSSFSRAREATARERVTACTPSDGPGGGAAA
Sequence of Mu-type opioid receptor (P33535 whole entry): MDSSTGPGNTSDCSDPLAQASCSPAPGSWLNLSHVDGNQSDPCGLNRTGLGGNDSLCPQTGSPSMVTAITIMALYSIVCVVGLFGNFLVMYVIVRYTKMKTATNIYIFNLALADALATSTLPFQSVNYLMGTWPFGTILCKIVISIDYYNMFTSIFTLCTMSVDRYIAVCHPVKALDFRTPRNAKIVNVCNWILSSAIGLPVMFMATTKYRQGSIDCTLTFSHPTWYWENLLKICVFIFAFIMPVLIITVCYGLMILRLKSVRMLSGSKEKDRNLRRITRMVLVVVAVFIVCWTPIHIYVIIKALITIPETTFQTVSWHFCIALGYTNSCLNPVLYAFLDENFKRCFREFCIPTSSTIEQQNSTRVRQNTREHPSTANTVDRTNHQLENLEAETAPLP

| SMILES | Efficacy (Cricetinae gen. sp. [1]) [%] | ED50 (Mus musculus [2]) [µmol/kg] | Efficacy (Mus musculus [3]) [%] | IC50 (Mus musculus [4]) [nM] | IC50 [5] [nM] | IC50 [6] [nM] | IC50 (Mu-type opioid receptor) [nM] | IC50 (Cricetinae gen. sp. [7]) [nM] | IC50 [8] [nM] |
| --- | --- | --- | --- | --- | --- | --- | --- | --- | --- |
| CCN(CC)C(=O)c1ccc(C(c2ccccc2)N2CCN(Cc3ccc4c(c3)OCO4)CC2)cc1 (centres undefined) | 52 | > 200 | 98 | 100 | 1.4 | 3900 | > 10000 | 2510 | – |
| CCN(CC)C(=O)c1ccc(C(c2ccccc2)N2CCN(CC3CCc4ccccc4C3)CC2)cc1 (centres undefined) | – | – | – | – | 1.8 | – | 6240 | – | – |
| CCN(CC)C(=O)c1ccc(C(c2ccccc2)N2CC(C)NC(C)C2)cc1 (centres undefined) | – | – | – | – | 42 | – | – | – | – |
| CCN(CC)C(=O)c1ccc(C(c2ccccc2)N2CCNC3CCCCC32)cc1 (centres undefined) | – | – | – | – | 29 | – | – | – | – |
| CCN(CC)C(=O)c1ccc(C(c2ccccc2)N2CCN(CCO)CC2)cc1 (centres undefined) | – | – | – | – | 5.5 | – | > 10000 | – | – |
| CCCN1CCN(C(c2ccccc2)c2ccc(C(=O)N(CC)CC)cc2)CC1 (centres undefined) | – | – | – | – | 11.4 | – | > 10000 | – | – |
| C=CCN1CCCN(C(c2ccccc2)c2ccc(C(=O)N(CC)CC)cc2)CC1 (centres undefined) | – | – | – | – | – | – | – | – | 13 |
| CCN(CC)C(=O)c1ccc(C(NCC(C)(C)N)c2ccccc2)cc1 (centres undefined) | – | – | – | – | 120 | – | – | – | – |
| CCN(CC)C(=O)c1ccc(C(c2ccccc2)N2CCN(C3CCCC3)CC2)cc1 (centres undefined) | – | – | – | – | 5.8 | – | – | – | – |
| CCN(CC)C(=O)c1ccc(C(c2ccccc2)N(CC)CCN(C)C)cc1 (centres undefined) | – | – | – | – | 845 | – | – | – | – |
| CCN(CC)C(=O)c1ccc(C(c2ccccc2)N(CCN(C)C)Cc2ccccc2)cc1 (centres undefined) | 13 | 48.4 | 7 | > 10000 | 70 | 483 | > 10000 | > 10000 | – |
| CCN(CC)C(=O)c1ccc([C@H](c2ccccc2)N2C[C@@H](C)N(Cc3ccc4c(c3)OCO4)C[C@@H]2C)cc1 | 68 | > 200 | 100 | 39.8 | 0.54 | – | 702 | 1260 | – |
| CCN(CC)C(=O)c1ccc(C(c2ccccc2)N2CCN(c3ccc(O)cc3)CC2)cc1 (centres undefined) | – | – | – | – | 10 | – | > 10000 | – | – |
| C=CCN1CCN(C(c2ccccc2)c2ccc(C(=O)N(CC)CC)cc2)CC1 (stereo in doubt; 2) | 4 | 145 | 87 | 631 | 4.1 | 1990 | > 10000 | > 10000 | – |
| C=CCN1CCN(C(c2ccccc2)c2ccc(C(=O)N(CC)CC)cc2)CC1 (stereo in doubt; 6 {1} (2)) | – | – | – | – | 8 | – | – | – | – |
| C=CCN1CCN(C(c2ccccc2)c2ccc(C(=O)N(CC)CC)cc2)CC1 (stereo in doubt; 7 {1} (2)) | – | – | – | – | 8 | – | > 50000 | – | – |
| C=CCN1C[C@H](C)N([C@H](c2ccc(C(=O)N(CC)CC)cc2)c2cccc(OC)c2)C[C@H]1C [SNC-80] | 90 | 30.4 | 100 | 7.94 | – | 4100 | – | 50.1 | – |
